This is an account of results in PubChem BioAssay AID1918932 (Molecular Pharmacology Branch, DTP, NCI, 2023).

This experiment concerns 171881-019-R-J1-PDC complex spheroid viability. Briefly: Anticancer human tumor 171881-019-R-J1-PDC patient-derived invasive breast carcinoma cell line growth inhibition. Conditions: for viability, T/C: stronger effect = lower value. An excerpt:
Multicellular complex tumor spheroid response to LSD1 Inhibitor Iadademstat in combination with a variety of drugs and investigational agents in selected tumor cell lines
The current study was undertaken to assess response to LSD1 inhibitors in combination with standard-of-care drugs and investigational agents in solid tumor complex spheroid models as well as in the K-562 leukemia. Complex spheroids include a stromal component modeled by human endothelial cells (HUVEC) and fibroblasts modeled by human mesenchymal stem cells (MSCs). The concentration ranges selected for each drug and investigational agent were based upon clinically achievable concentrations if the clinical Cmax of the agent was known.
Compounds. The drugs and investigational agents used in this study are listed on Table 1. All of the agents used, including staurosporine (NSC755774) and gemcitabine (NSC613327), were obtained from the Developmental Therapeutics Program, NCI. FDA-approved anticancer drugs are available from the NCI at http://dtp.nci.nih.gov/branches/dscb/oncology_drugset_explanation.html. Drugs and investigational agents were >95% pure by proton nuclear magnetic resonance (NMR) and liquid chromatography/mass spectrometry (LC/MS). Stock solutions were prepared at 400x in DMSO, stored at -70 degrees C, and diluted in fresh medium prior to their use. The final concentration of DMSO in cell culture wells never exceeded 0.25% (v/v). The FDA-approved anticancer drug set is available from the Developmental Therapeutics Program at https://dtp.cancer.gov/organization/dscb/obtaining/available_plates.htm. All drugs and investigational agents were tested over a range starting from a high concentration at or near the clinical Cmax and decreasing in half-log increments. If the clinical Cmax for an agent had not been determined, the highest concentration tested was 10 microM.
Cell Lines. The patient-derived cancer cell (PDC) lines: 292921-168-R-J2-PDC, K24384-001-R-PDC, and 521955-158-R2-J5-PDC pancreatic carcinomas, 556581-035-R-J1 ovarian carcinoma, 324938-238-R-J1-PDC, 855422-203-R-J1-PDC and 883617-216-R-J1-PDC urothelial bladder carcinomas, 743489-274-T-PDC renal cell carcinoma, 138582-R-J1 Merkel cell tumor, K60290-347-R-J1 and K57222-313-R-J1-PDC glioblastomas, 653999-131-R-J2-PDC, LG0703-F948-PDC, and 349418-098-R-PDC non-small cell lung carcinomas, 885512-296-R-J2-PDC, 171881-019-R-J1-PDC breast carcinomas and 186277-243-T-J2-PDC and 233499-124-R-J2-PDC colon carcinomas were obtained from the NCI Patient-Derived Models Repository (PDMR, https://pdmr.cancer.gov). The established cell lines NCI/ADR-RES (RRID:CVCL_14520 and OVCAR-5 (RRID:CVCL_1628) ovarian carcinomas, 786-O (RRID:CVCL_1051) and A498 (RRID:CVCL_A498) renal cell carcinoma, NCI-H211 (ATCC, cat. CRL-5824; RRID:CVCL_1529), NCI-H196 (ATCC, cat. CRL-5823, RRID:CVCL_1509), SW 1271 (ATCC, cat. CRL-2177, RRID:CVCL_1716) and NCI-H1876 (ATCC, cat. CRL-5902, RRID:CVCL_1503) small cell lung carcinomas, MDA-MB-231 (RRID:CVCL_0062) and MDA-MB-468 (RRID:CVCL_0419)breast carcinomas (10-12). Pooled donor human umbilical vein endothelial cells (HUVEC, Lonza, cat. CC-2519) and human mesenchymal stem cells (hMSC, Lonza, cat. PT-2501) were purchased from Lonza (Walkersville, MD).
Cell Culture. All cells were maintained in an incubator at 37 degrees C and 5% CO2 with 95% humidity. The PDC lines were cultured according to standard operating procedures established by the NCI PDMR (https://pdmr.cancer.gov). Briefly all PDCs were thawed and cultured in Matrigel-coated flasks prepared with a working solution of 1X Ham's F-12 nutrient mix, without supplementation (Invitrogen, Waltham, MA, cat. 11765054), 100 U/mL penicillin-streptomycin (Invitrogen, cat. 15140122), and 2.5% Matrigel (Corning Inc., Corning, NY, cat. 354248) for the first three passages. […]

[1] abbreviates: curve of first compound, second compound 0.1 µM.
[2] abbreviates: curve of first compound, second compound 0.316 µM.
Setting [3] is: curve of first compound, second compound 1 µM.
Setting [4] is: curve of first compound, second compound 3.16 µM.
[5] abbreviates: curve of first compound, second compound 10 µM.

Where “and” joins values, the source holds several entries; their conditions need not be identical. Identical values can stand only once.
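Further: spheroids exposed to agents for 7 days after 3 days growth.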

The term IC50 denotes the midpoint of a concentration-inhibition curve. By viability, T/C is commonly meant the result in the treated group divided by that in the control group, in per cent. For the compound `CCN(c1cc(-c2ccc(CN3CCOCC3)cc2)cc(C(=O)NCc2c(C)cc(C)[nH]c2=O)c1C)C1CCOCC1` + NC1CC1c1ccc(-c2cccc(O)c2)cc1, the IC50 worked out at 2130 nM under setting [1]; 2050 nM under setting [2]; 1840 nM under setting [3]; 1510 nM under setting [4]; 1180 nM under setting [5]. Moreover, the viability, T/C by setting is: (second compound 0.1 µM, first compound 0.00949 µM) 102%; (second compound 0.1 µM, first compound 0.03 µM) 109%; (second compound 0.1 µM, first compound 0.0949 µM) 102%; (second compound 0.1 µM, first compound 0.3 µM) 84.8%; (second compound 0.1 µM, first compound 0.949 µM) 68%; (second compound 0.1 µM, first compound 3 µM) 42.7%. Further, the viability, T/C (second compound 0.316 µM, first compound 0.00949 µM) was 102%; the viability, T/C (second compound 0.316 µM, first compound 0.03 µM) is 107%; the viability, T/C (second compound 0.316 µM, first compound 0.0949 µM) was 105%; the viability, T/C (second compound 0.316 µM, first compound 0.3 µM) is 88.4%; the viability, T/C (second compound 0.316 µM, first compound 0.949 µM) was 66.8%; the viability, T/C (second compound 0.316 µM, first compound 3 µM) was 42%. Besides, the viability, T/C is 99.3% (second compound 1 µM, first compound 0.00949 µM); 108% (second compound 1 µM, first compound 0.03 µM); 96.6% (second compound 1 µM, first compound 0.0949 µM); 74.9% (second compound 1 µM, first compound 0.3 µM); 61% (second compound 1 µM, first compound 0.949 µM); 43% (second compound 1 µM, first compound 3 µM). The viability, T/C was 96% (second compound 3.16 µM, first compound 0.00949 µM); 91.7% (second compound 3.16 µM, first compound 0.03 µM); 90.6% (second compound 3.16 µM, first compound 0.0949 µM); 75.2% (second compound 3.16 µM, first compound 0.3 µM); 59% (second compound 3.16 µM, first compound 0.949 µM); 37.6% (second compound 3.16 µM, first compound 3 µM). Further, the viability, T/C was 78.5% (second compound 10 µM, first compound 0.00949 µM); 77.4% (second compound 10 µM, first compound 0.03 µM); 82.2% (second compound 10 µM, first compound 0.0949 µM); 60.2% (second compound 10 µM, first compound 0.3 µM); 55.7% (second compound 10 µM, first compound 0.949 µM); 38.8% (second compound 10 µM, first compound 3 µM).

On to `O=C(c1cc(Cc2n[nH]c(=O)c3ccccc23)ccc1F)N1CCN(C(=O)C2CC2)CC1` + NC1CCC(NC2CC2c2ccccc2)CC1, for which the concentration for half-maximal inhibition (IC50) is, setting by setting: under setting [1], above 10000 nM; under setting [2], above 10000 nM; under setting [3], above 10000 nM; under setting [4], above 10000 nM; under setting [5], above 10000 nM. The viability, T/C reads like this: (second compound 0.1 µM, first compound 0.0316 µM) 85.3%; (second compound 0.1 µM, first compound 0.1 µM) 86.6%; (second compound 0.1 µM, first compound 0.316 µM) 82.4%; (second compound 0.1 µM, first compound 1 µM) 86.6%; (second compound 0.1 µM, first compound 3.16 µM) 84.7%; (second compound 0.1 µM, first compound 10 µM) 85.1%. Besides, the viability, T/C is, setting by setting: (second compound 0.316 µM, first compound 0.0316 µM) 91.7%; (second compound 0.316 µM, first compound 0.1 µM) 82.7%; (second compound 0.316 µM, first compound 0.316 µM) 87.7%; (second compound 0.316 µM, first compound 1 µM) 79.6%; (second compound 0.316 µM, first compound 3.16 µM) 86.2%; (second compound 0.316 µM, first compound 10 µM) 82%. The viability, T/C is 90.6% (second compound 1 µM, first compound 0.0316 µM); 95.9% (second compound 1 µM, first compound 0.1 µM); 88.9% (second compound 1 µM, first compound 0.316 µM); 79.9% (second compound 1 µM, first compound 1 µM); 85.8% (second compound 1 µM, first compound 3.16 µM); 80% (second compound 1 µM, first compound 10 µM). Moreover, the viability, T/C (second compound 3.16 µM, first compound 0.0316 µM) is 99.8%; the viability, T/C (second compound 3.16 µM, first compound 0.1 µM) was 87.8%; the viability, T/C (second compound 3.16 µM, first compound 0.316 µM) was 86.3%; the viability, T/C (second compound 3.16 µM, first compound 1 µM) was 79.3%; the viability, T/C (second compound 3.16 µM, first compound 3.16 µM) is 88.4%; the viability, T/C (second compound 3.16 µM, first compound 10 µM) was 80.9%. Besides, the viability, T/C (second compound 10 µM, first compound 0.0316 µM) was 83.8%; the viability, T/C (second compound 10 µM, first compound 0.1 µM) is 82.9%; the viability, T/C (second compound 10 µM, first compound 0.316 µM) is 78.3%; the viability, T/C (second compound 10 µM, first compound 1 µM) was 74.2%; the viability, T/C (second compound 10 µM, first compound 3.16 µM) is 81.9%; the viability, T/C (second compound 10 µM, first compound 10 µM) was 80.5%.

On to `CCN(c1cc(-c2ccc(CN3CCOCC3)cc2)cc(C(=O)NCc2c(C)cc(C)[nH]c2=O)c1C)C1CCOCC1`, for which the viability, T/C (compound 0.00949 µM) is 81.1% and 94.4%; the viability, T/C (compound 0.03 µM) was 86.6% and 102%; the viability, T/C (compound 0.0949 µM) is 92.5% and 86.2%; the viability, T/C (compound 0.3 µM) was 102% and 82.3%; the viability, T/C (compound 0.949 µM) was 89.9% and 64.9%; the viability, T/C (compound 3 µM) is 46.9% and 40.9%. Moreover, the IC50 (curve of compound) was 2760 nM and 1950 nM.

Regarding `Cn1ncnc1C1c2n[nH]c(=O)c3cc(F)cc(c23)NC1c1ccc(F)cc1` (centres undefined), the viability, T/C reads like this: (compound 0.000316 µM) 92.8% and 99.4%; (compound 0.001 µM) 103% and 104%; (compound 0.00316 µM) 88% and 103%; (compound 0.01 µM) 102% and 99%; (compound 0.0316 µM) 82.2% and 97.7%; (compound 0.1 µM) 97.2% and 98.6%. Also, the IC50 (curve of compound) is above 100 nM.
